Laboratory results as given in US20240299385A1 (ReWind Therapeutics NV, priority 2021, published 2024).

Molecular target: T1, human GPR17 receptor (Homo sapiens, UniProt Q13304)
T1 construct: host or cells: HEK-293
Test: Calcium mobilization functional assay (Fluo-8, FLIPR TETRA) in HEK-293 hGPR17 (Gα-q assay)
Type: cell-based
Settings: antagonism of MDL29,951 (~EC80) induced Ca2+ signal; cell line (HEK-293 hGPR17 or HEK-293 Suchi5 hGPR17) not given
Summary of the method: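 Fluo-8-loaded HEK-293 hGPR17 cells (60 min dye loading, room temperature) were preincubated with compound for twenty minutes, then challenged with agonist MDL29,951 at ~EC80, 500 nM. Intracellular calcium release via Gα-q was recorded as FLIPR fluorescence for a further 2 minutes; compounds tested in duplicate.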

T1 sequence (Q13304 whole entry): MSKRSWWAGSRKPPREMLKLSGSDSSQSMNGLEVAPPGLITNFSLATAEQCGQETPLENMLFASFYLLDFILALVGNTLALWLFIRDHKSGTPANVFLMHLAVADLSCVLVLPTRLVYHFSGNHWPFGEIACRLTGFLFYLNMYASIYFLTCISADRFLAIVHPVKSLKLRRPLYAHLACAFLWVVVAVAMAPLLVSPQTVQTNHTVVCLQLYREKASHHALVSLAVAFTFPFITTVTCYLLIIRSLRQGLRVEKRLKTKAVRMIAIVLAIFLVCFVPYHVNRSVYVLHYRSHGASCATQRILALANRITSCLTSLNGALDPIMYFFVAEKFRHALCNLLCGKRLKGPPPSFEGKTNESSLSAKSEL

IC50 [nM]	SMILES
500 to 5000	COc1ccc(Cl)cc1-c1cc(S(=O)(=O)Nc2ccc(C#N)cc2F)c[nH]1 [Cpd 488, 5-(5-chloro-2-methoxyphenyl)-N-(4-cyano-2-fluorophenyl)-1H-pyrrole-3-sulfonamide]
< 500	N#Cc1ccc(NS(=O)(=O)c2c[nH]c(-c3c(F)cc(F)cc3F)c2)c(F)c1 [Cpd 489, N-(4-cyano-2-fluorophenyl)-5-(2,4,6-trifluorophenyl)-1H-pyrrole-3-sulfonamide]
5000 to 50000	CC(=O)c1cccc(Cc2c[nH]cc2S(=O)(=O)Nc2ccc(C#N)cc2F)c1 [Cpd 490, 4-[(3-acetylphenyl)methyl]-N-(4-cyano-2-fluorophenyl)-1H-pyrrole-3-sulfonamide]
5000 to 50000	N#Cc1ccc(NS(=O)(=O)c2c[nH]c(Cc3ccccn3)c2)c(F)c1 [Cpd 491, N-(4-cyano-2-fluorophenyl)-5-(pyridin-2-ylmethyl)-1H-pyrrole-3-sulfonamide]
500 to 5000	N#Cc1cc(F)c(NS(=O)(=O)c2c[nH]c(-c3c(F)cc(F)cc3F)c2)cc1Cl [Cpd 492, N-(5-chloro-4-cyano-2-fluorophenyl)-5-(2,4,6-trifluorophenyl)-1H-pyrrole-3-sulfonamide]
< 500	O=S(=O)(Nc1nc(F)c(OCCF)cc1F)c1c[nH]c(-c2ccccc2)c1 [Cpd 494, N-[3,6-difluoro-5-(2-fluoroethoxy)pyridin-2-yl]-5-phenyl-1H-pyrrole-3-sulfonamide]
500 to 5000	Cc1cc(NS(=O)(=O)c2c[nH]c(-c3c(F)cc(F)cc3F)c2)c(F)cc1C#N [Cpd 495, N-(4-cyano-2-fluoro-5-methylphenyl)-5-(2,4,6-trifluorophenyl)-1H-pyrrole-3-sulfonamide]
500 to 5000	O=S(=O)(Nc1cc(F)c(OCC(F)F)cc1F)c1c[nH]cc1-c1cccc(F)c1 [Cpd 496, N-[4-(2,2-difluoroethoxy)-2,5-difluorophenyl]-4-(3-fluorophenyl)-1H-pyrrole-3-sulfonamide]
< 500	N#Cc1cc(F)c(NS(=O)(=O)c2c[nH]cc2-c2cccc(F)c2)cc1F [Cpd 497, N-(4-cyano-2,5-difluorophenyl)-4-(3-fluorophenyl)-1H-pyrrole-3-sulfonamide]
500 to 5000	Cc1nc(-c2cc(S(=O)(=O)Nc3ccc(C#N)cc3F)c[nH]2)ccc1F [Cpd 498, N-(4-cyano-2-fluorophenyl)-5-(5-fluoro-6-methylpyridin-2-yl)-1H-pyrrole-3-sulfonamide]
5000 to 50000	N#Cc1ccc(NS(=O)(=O)c2c[nH]c(-c3ccc(Cl)cn3)c2)c(F)c1 [Cpd 499, 5-(5-chloropyridin-2-yl)-N-(4-cyano-2-fluorophenyl)-1H-pyrrole-3-sulfonamide]
5000 to 50000	Cc1ccc(-c2cc(S(=O)(=O)Nc3ccc(C#N)cc3F)c[nH]2)nc1 [Cpd 500, N-(4-cyano-2-fluorophenyl)-5-(5-methylpyridin-2-yl)-1H-pyrrole-3-sulfonamide]

Continued, molecule first:

SMILES	IC50 [nM]
COc1nc(Br)cnc1NS(=O)(=O)c1c[nH]cc1-c1cccc(F)c1 [Cpd 469, N-(5-bromo-3-methoxypyrazin-2-yl)-4-(3-fluorophenyl)-1H-pyrrole-3-sulfonamide]	500 to 5000
N#Cc1cc(F)c(NS(=O)(=O)c2c[nH]c(-c3cc(Cl)c(F)cc3F)c2)cc1Cl [Cpd 470, 5-(5-chloro-2,4-difluorophenyl)-N-(5-chloro-4-cyano-2-fluorophenyl)-1H-pyrrole-3-sulfonamide]	500 to 5000
Cc1cc(NS(=O)(=O)c2c[nH]c(-c3cc(Cl)c(F)cc3F)c2)c(F)cc1C#N [Cpd 471, 5-(5-chloro-2,4-difluorophenyl)-N-(4-cyano-2-fluoro-5-methylphenyl)-1H-pyrrole-3-sulfonamide]	500 to 5000
N#CCOc1cnc(NS(=O)(=O)c2c[nH]c(-c3ccccc3)c2)c(F)c1 [Cpd 472, N-[5-(cyanomethoxy)-3-fluoropyridin-2-yl]-5-phenyl-1H-pyrrole-3-sulfonamide]	500 to 5000
O=S(=O)(Nc1cc(F)c(OCC(F)F)cc1F)c1c[nH]c(-c2ccccn2)c1 [Cpd 473, N-[4-(2,2-difluoroethoxy)-2,5-difluorophenyl]-5-pyridin-2-yl-1H-pyrrole-3-sulfonamide]	500 to 5000
O=S(=O)(Nc1cc(F)c(OC(F)F)cc1F)c1c[nH]c(-c2ccoc2)c1 [Cpd 474, N-[4-(difluoromethoxy)-2,5-difluorophenyl]-5-(furan-3-yl)-1H-pyrrole-3-sulfonamide]	< 500
O=S(=O)(Nc1cc(F)c(OC(F)F)cc1F)c1c[nH]c(-c2cccs2)c1 [Cpd 475, N-[4-(difluoromethoxy)-2,5-difluorophenyl]-5-thiophen-2-yl-1H-pyrrole-3-sulfonamide]	< 500
O=S(=O)(Nc1cc(F)c(OC(F)F)cc1F)c1c[nH]c(-c2ccsc2)c1 [Cpd 476, N-[4-(difluoromethoxy)-2,5-difluorophenyl]-5-thiophen-3-yl-1H-pyrrole-3-sulfonamide]	< 500
O=S(=O)(Nc1cc(F)c(Br)cc1F)c1c[nH]c(-c2ccoc2)c1 [Cpd 477, N-(4-bromo-2,5-difluorophenyl)-5-(furan-3-yl)-1H-pyrrole-3-sulfonamide]	< 500
O=S(=O)(Nc1cc(F)c(Br)cc1F)c1c[nH]c(-c2cccs2)c1 [Cpd 478, N-(4-bromo-2,5-difluorophenyl)-5-(thiophen-2-yl)-1H-pyrrole-3-sulfonamide]	< 500
O=S(=O)(Nc1cc(F)c(Br)cc1F)c1c[nH]c(-c2ccsc2)c1 [Cpd 479, N-(4-bromo-2,5-difluorophenyl)-5-thiophen-3-yl-1H-pyrrole-3-sulfonamide]	< 500
COc1cccc(Cc2c[nH]cc2S(=O)(=O)Nc2cc(F)c(OC(F)F)cc2F)c1 [Cpd 480, N-[4-(difluoromethoxy)-2,5-difluorophenyl]-4-[(3-methoxyphenyl)methyl]-1H-pyrrole-3-sulfonamide]	< 500
O=S(=O)(Nc1cc(F)c(C(F)(F)F)cc1F)c1c[nH]cc1Cc1cccc(F)c1 [Cpd 481, N-[2,5-difluoro-4-(trifluoromethyl)phenyl]-4-[(3-fluorophenyl)methyl]-1H-pyrrole-3-sulfonamide]	500 to 5000
COc1cccc(Cc2c[nH]cc2S(=O)(=O)Nc2cc(F)c(C(F)(F)F)cc2F)c1 [Cpd 482, N-[2,5-difluoro-4-(trifluoromethyl)phenyl]-4-[(3-methoxyphenyl)methyl]-1H-pyrrole-3-sulfonamide]	500 to 5000
O=S(=O)(Nc1cc(F)c(OC(F)F)cc1F)c1c[nH]cc1Cc1cccc(OC(F)F)c1 [Cpd 483, N-[4-(difluoromethoxy)-2,5-difluorophenyl]-4-[[3-(difluoromethoxy)phenyl]methyl]-1H-pyrrole-3-sulfonamide]	500 to 5000
O=S(=O)(Nc1cc(F)c(OC(F)F)cc1F)c1c[nH]cc1Cc1ccccc1F [Cpd 484, N-[4-(difluoromethoxy)-2,5-difluorophenyl]-4-[(2-fluorophenyl)methyl]-1H-pyrrole-3-sulfonamide]	< 500
O=S(=O)(Nc1cc(F)c(OC(F)F)cc1F)c1c[nH]cc1Cc1ccc(F)cc1 [Cpd 485, N-[4-(difluoromethoxy)-2,5-difluorophenyl]-4-[(4-fluorophenyl)methyl]-1H-pyrrole-3-sulfonamide]	500 to 5000
Cc1ccc(Cc2c[nH]cc2S(=O)(=O)Nc2ccc(C#N)cc2F)s1 [Cpd 486, N-(4-cyano-2-fluorophenyl)-4-[(5-methylthiophen-2-yl)methyl]-1H-pyrrole-3-sulfonamide]	500 to 5000
